Blank lines part the entries; values can stand above or below the molecule they belong to.
How the values were obtained:
[1] = Permeability from apical to basolateral side of human Caco2 cells at 10 uM after […] by HPLC-MS/MS analysis; format: ADME, cell-based; conditions: Caco-2, read-out: permeability
[2] = Permeability from basolateral to apical side of human Caco2 cells at 10 uM after […] by HPLC-MS/MS analysis; format: ADME, cell-based; conditions: Caco-2, read-out: permeability
[3] = Oral bioavailability in cynomolgus monkey; format: ADME, organism-based, Macaca fascicularis; conditions: in vivo

Papp A→B at […], 10 µM [1]: 67 ×10⁻⁶ cm/s
Papp B→A at […], 10 µM [2]: 61 ×10⁻⁶ cm/s
SMILES: O=C(C1CCOCC1)N1CCCN(c2nc(-c3ccccc3)ns2)CC1

Papp A→B at […], 10 µM [1]: 62 ×10⁻⁶ cm/s
Papp B→A at […], 10 µM [2]: 71 ×10⁻⁶ cm/s
SMILES: O=C(C1CCOCC1)N1CCCN(c2nc3ccc(Cl)cc3s2)CC1

The remaining lines, values behind:

SMILES: CC(C)(C)c1ccc2oc(N3CCCN(C(=O)C4CCOCC4)CC3)nc2c1
Papp A→B at […], 10 µM [1]: 49 ×10⁻⁶ cm/s
Papp B→A at […], 10 µM [2]: 64 ×10⁻⁶ cm/s

SMILES: O=C(C1CCOCC1)N1CCCN(c2nc(C(F)(F)F)c(Cl)s2)CC1
Papp A→B at […], 10 µM [1]: 53 ×10⁻⁶ cm/s
Papp B→A at […], 10 µM [2]: 70 ×10⁻⁶ cm/s

SMILES: CC(C)(C)c1cc(NC(=O)N2CCCN(C(=O)C3CCOCC3)CC2)no1
Papp A→B at […], 10 µM [1]: 7 ×10⁻⁶ cm/s
Papp B→A at […], 10 µM [2]: 42 ×10⁻⁶ cm/s
bioavailability [3]: 3%

Source: ChEMBL document CHEMBL1800049, “Aryl 1,4-diazepane compounds as potent and selective CB2 agonists: optimization of drug-like properties and target independent parameters” (Bioorg Med Chem Lett, 2011)
